4 compounds from US4283398A, “Cephalosporins” (Mitsui Toatsu Chemicals, Inc., priority 1978, dated 1981) can be followed below.

Series [1] deals with Pseudomonas aeruginosa (NCTC 7244). Nature of the series: minimum bactericidal concentration (MBC). The conditions noted are these: NCTC7244, 18 h, subculture on HIA medium, 37° C. It is filed as cell-based. On the procedure:
(§1) The compounds obtained in Synthesis Examples 1 and 2 were tested in the following manner.
(§2) A suspension of Pseudomonas aeruginosa (NCTC 7244) cultivated at 37° C. for 18 hours in a heart infusion broth medium (HIB medium) in a final amount of 10^5, 10^6 and 10^7 cells/ml in an HIB medium containing each of the test compounds which was obtained in the same way as in Referential Example 1 except that the maximum concentration of the test compound was 200 μg/ml. The bacterial strain was cultivated at 37° C. for 18 hours, and the turbidity of the culture broth was evaluated with the naked eye. The minimum concentration of the test compound at which no turbidity was noted was defined as MIC.
After the determination of MIC, one platinum loopful of each of the culture broths in various concentrations was taken out from the test tubes, and inoculated in a separately provided plate of an HIA medium not containing the test compound, and incubated at 37° C. for 18 hours. The growth of the bacterial strain was evaluated.

Series [2] deals with Escherichia coli (26R03). Nature of the series: minimum growth inhibitory concentration (MIC) method. It is filed as cell-based. The conditions noted are these: E. coli 26R03, HIA medium, 37° C., 18 hours, sodium salts. On the procedure:
(§3) The antibacterial activities of the cephalosporins of this invention were measured using the sodium salts of the compounds obtained in Synthesis Examples 1 and 2. The procedure and the results are shown in Referential Example 1.
(§4) Carbenicillin sodium salt (CB-PC) and cephazoline sodium salt (CEZ) were used as controls.
(§5) The antibacterial activities of the test compounds against various Gram-positive and Gram-negative bacteria were determined in a customary manner by the minimum growth inhibitory concentration method (MIC method).
(§6) A commercially available heart infusion agar medium (to be abbreviated HIA medium) was used as an assay medium, and a commercially available trypto-soy bouillon medium (to be abbreviated TSB) was used as a medium for the growth of test bacterial strains.
(§7) The test compound was diluted with the melted HIA medium to 100 μg/ml as a maximum concentration, and then serially diluted double. The dilutions were poured into sterilized Petri dishes respectively and allowed to cool and solidify to prepare plates containing the test compound.
(§8) The test bacterial strain was cultivated at 37° C. for 18 to 24 hours in the TSB medium. The culture broth was diluted to 50 to 500 times with a freshly prepared TSB culture medium, and one platinum loopful of the dilution was inoculated in each of the plates containing the test compound. The plate was incubated at 37° C. for 18 hours, and the state of growth of the strain on the plate was observed, and the minimum growth inhibitory concentration (MIC) of the test compound was determined.

For series [3], the system named is Klebsiella pneumonia (F-5089). Described as above. It is filed as cell-based. The conditions noted are these: Klebsiella pneumoniae, HIA medium, 37° C., 18 hours, sodium salts. On the procedure:
as §3, §4, §5, §6, §7, §8

Series [4] has as its system Pseudomonas aeruginosa (NCTC 7244). As to the kind of experiment: MIC in HIB medium at different inocula (turbidity). It is filed as cell-based. The conditions noted are these: NCTC7244, 18 h, 37° C. The protocol:
as §1, §2

Series [5] can be described thus: blood level in rats after intramuscular administration. In kind it is in vivo. The conditions noted are these: rat, im, 20 mg/kg i.m., serum, read-out: Blood level after administration (average value ± standard deviation); for concentration at 0.25 h: 15 minutes; for concentration at 0.5 h: 30 minutes; for concentration at 1 h: 60 minutes; for concentration at 2 h: 120 minutes. The protocol:
The compounds of this invention prepared in synthesis Examples 1 and 2 were each administered intramuscularly to rats, and the concentrations of the compounds in the blood were determined.
Each of the test compounds was intramuscularly injected into the femoral part of rats in a customary manner in a dose of 20 mg/kg for each rat. The blood was drawn by incising the cervical artery and vein at the end of 15 minutes, 30 minutes, 60 minutes, 120 minutes, and 240 minutes after the injection. The separated sera were used for the measurement of the blood level of the test compound. The concentrations of the test compounds in the sera were determined by a thin-layer cup method using Micrococcus luteus ATCC 9341 as an assay microorganism.

Molecules are shown by their SMILES. Values after ≈ are worked out from the molar mass of the structure shown. A value given as a limit tells only on which side of the number the result lay.

The MBC is the smallest concentration meeting the test's criterion for killing. For orientation: MIC means the lowest concentration found to suppress growth. As for `Cc1nnc(SCC2=C(C(=O)O)N3C(=O)[C@@H](NC(=O)Cn4cnnn4)[C@H]3SC2)s1` [CEZ, sodium 7-[1-(1H)-tetrazoylacetamido]-3-[2-(5-methyl-1,3,4-thiadiazoyl)-thiomethyl]-Δ^3, cephem-4-carboxylate, reference compound], the minimal bactericidal concentration (MBC) in series [1] (inoculum 10^5 cells/ml), in series [1] (inoculum 10^6 cells/ml) and in series [1] (inoculum 10^7 cells/ml) was over 200 µg/mL each time. The minimum inhibitory concentration (MIC) in series [2] was 50 µg/mL; in series [3] it was 3.13 µg/mL; in series [4] (inoculum 10^5 cells/ml), over 200 µg/mL; in series [4] (inoculum 10^6 cells/ml), over 200 µg/mL; in series [4] (inoculum 10^7 cells/ml), over 200 µg/mL.

Consider `Cn1nnnc1SCC1=C(C(=O)O)N2C(=O)C(NC(=O)[C@H](NC(=O)c3cnc4c(c3O)C(=O)CCC4)c3ccc(O)cc3)C2SC1` (single isomer, unassigned) [Synthesis Example 2, 7-[D-(-)-α-(4-hydroxy-5-oxo-5,6,7,8-tetrahydroquinoline-3-carboxamide)-α-(4-hydroxyphenyl)acetamido]-3-[[(1-methyl-1H-tetrazol-5-yl)thio]methyl]-Δ^3-cephem-4-carboxylic acid], for which, in series [5], the concentration at 0.25 h worked out at 20000 ± 1400 ng/mL. Further, the concentration at 0.5 h in series [5] amounted to 14400 ± 2500 ng/mL. The concentration at 1 h in series [5] is 8000 ± 4000 ng/mL. The concentration at 2 h in series [5] was determined as 3200 ± 1200 ng/mL. Besides, the results for the MBC in series [1] (inoculum 10^5 cells/ml), in series [1] (inoculum 10^6 cells/ml) and in series [1] (inoculum 10^7 cells/ml) were 6.25 µg/mL (≈ 9.37 µM), 12.5 µg/mL (≈ 18.7 µM) and over 200 µg/mL, respectively. Further, the minimum inhibitory concentration (MIC) in series [2] was 0.78 µg/mL; in series [4] (inoculum 10^5 cells/ml), 6.25 µg/mL (≈ 9.37 µM); in series [4] (inoculum 10^6 cells/ml), 6.25 µg/mL (≈ 9.37 µM); in series [4] (inoculum 10^7 cells/ml), 12.5 µg/mL (≈ 18.7 µM).

On to `CC1(C)S[C@@H]2[C@H](NC(=O)C(C(=O)O)c3ccccc3)C(=O)N2[C@H]1C(=O)O` (stereo partly drawn) [CB-PC, disodium-α-carboxybenzyl penicillin, reference compound], for which the values for the MBC in series [1] (inoculum 10^5 cells/ml), in series [1] (inoculum 10^6 cells/ml) and in series [1] (inoculum 10^7 cells/ml) were 100 µg/mL, 100 µg/mL and over 200 µg/mL, respectively. For the same compound, the MIC in series [2] was 3.13 µg/mL; in series [3] it was 50 µg/mL; in series [4] (inoculum 10^5 cells/ml) it was 50 µg/mL; in series [4] (inoculum 10^6 cells/ml), 100 µg/mL; in series [4] (inoculum 10^7 cells/ml), 200 µg/mL.

Take `Cn1nnnc1SCC1=C(C(=O)O)N2C(=O)C(NC(=O)[C@H](NC(=O)c3cnc4c(c3O)C(=O)CCC4)c3ccccc3)C2SC1` (single isomer, unassigned) [Synthesis Example 1, 7-[D-(-)-α-(4-hydroxy-5-oxo-5,6,7,8-tetrahydroquinoline-3-carboxamide)phenylacetamido)-3-[[(1-methyl-1H-tetrazol-5-yl)thio]methyl]-Δ^3-cephem-4-carboxylic acid]: the concentration at 0.25 h in series [5] was 12100 ± 3600 ng/mL. In addition, the concentration at 0.5 h in series [5] came to 10500 ± 2200 ng/mL. The concentration at 1 h in series [5] worked out at 9100 ± 3200 ng/mL. The concentration at 2 h in series [5] worked out at 4800 ± 2100 ng/mL. For the same compound, the results for the MBC in series [1] (inoculum 10^5 cells/ml), in series [1] (inoculum 10^6 cells/ml) and in series [1] (inoculum 10^7 cells/ml) were 12.5 µg/mL (≈ 19.2 µM), 12.5 µg/mL (≈ 19.2 µM) and over 200 µg/mL, respectively. The MIC came out at 1.56 µg/mL in series [2], 12.5 µg/mL (≈ 19.2 µM) in series [4] (inoculum 10^5 cells/ml), 12.5 µg/mL (≈ 19.2 µM) in series [4] (inoculum 10^6 cells/ml) and 25 µg/mL (≈ 38.4 µM) in series [4] (inoculum 10^7 cells/ml).
